Source: patent US9650428B2, “Methods and compositions for treating cancer” (Roger Williams Hospital, priority 2014, dated 2017)

System: U251MG glioma cells
Experiment: In vivo efficacy in athymic nude mice with subcutaneous U251MG glioma
Settings: tumor-bearing mice; TMZ alone orally 64 mg/kg/day for 4 days, no T cells (Group III)
Procedure: The in vivo efficacy of the IL13E13K.R109K-2A-P140KMGMT construct was tested in mice using the viral particles generated as described in Example 2. Fifty athymic nude mice were injected subcutaneously (left flank) with U251MG glioma cells (40 mice; Groups I-IV) or PBS (10 mice). Four days after glioma implantation, 3 groups of mice (Groups I, II and III, 10 mice/group) were treated orally with TMZ (64 mg/kg/day by oral gavage) for 4 days. On the 5th day after glioma implantation, the 3 groups of mice that had been treated orally with TMZ were treated as follows: Group I: an intra-tumoral injection of the IL13E13K.R109KCAR-2A-P140KMGMT construct (TMZ-resistant); Group II: the IL13 IL13E13K.R109K construct with no MGMT (TMZ sensitive); Group III: treatment with PBS only (no injection of T cells). Group IV received no T cells or TMZ treatment. The mice were monitored for visual tumor growth, behavioral changes, and morbidity until day 90 after injection of the T cells at which time the mice were sacrificed as required by IACUC restrictions.

Compound Cn1nnc2c(C(N)=O)ncn2c1=O [TMZ, temozolomide] has a median survival time of 36 days and a survival rate of 20%.
